# Experimental data: patent publication US20180296537A1, “METHODS AND COMPOSITIONS FOR DIAGNOSING, TREATING, AND MONITORING TREATMENT OF SHANK3 DEFICIENCY ASSOCIATED DISORDERS” (Novartis AG, priority 2015, published 2018)
# Tested on: rpS6
# Test: Western blot of rpS6 phosphorylation in Shank3 knock down primary neurons
# Assay type: cell-based, rat
# Description: E18 primary rat cortical neurons were dissected, cultured and infected 6 days after plating (DIV6) with indicated lentiviruses at MOI 10, as previously described (Proenca et al., 2013). Lentiviruses were produced by calcium phosphate transfection of HEK293T cells with packaging plasmids (Life Technologies) and transfer plasmid in 10 cm dishes. Cells were transferred to fresh medium 6 hrs. post-transfection. Four days post-transfection, the cell medium was collected and pooled from several dishes, cleared of cellular debris by 0.45 μm filtration, and concentrated 100× by centrifugation at 19,000 g for 90 min in a Beckman Ultracentrifuge using a SW28/SW32 rotor. Pellets were suspended in PBS/0.5% BSA and viral titer was determined by ELISA quantification of viral p24 antigen (Zeptometrix Corp, USA). For shRNA plasmid generation, oligonucleotides were annealed and ligated into lentiviral transfer plasmid pLKO.1-GFP vector at the AgeI/EcoRI sites. The target sequences of shRNAs that target rat and mouse Shank3 (5′-3′) are: […] (SEQ ID NO: 1), […] (SEQ ID NO: 2), and […] (SEQ ID NO: 3). The latter was previously reported (Verpelli et al., 2011). A luciferase-targeting sequence was used as an shRNA control: […] (SEQ ID NO: 4). […]
SMILES,"rpS6 phosphorylation (Shank3 knock-down (shShank3) neurons, TG003 (FIG. 3F))","rpS6 phosphorylation (Shank3 knock down primary neurons, SC79 treatment)"
"CCN1/C(=C/C(C)=O)Sc2ccc(OC)cc21 [TG003, (Z)-1-(3-ethyl-5-methoxy-2,3-dihydrobenzothiazol-2-ylidene)propan-2-one]",restores Akt and rpS6 phosphorylation,
CCOC(=O)C1=C(N)Oc2ccc(Cl)cc2C1C(C#N)C(=O)OCC (centres unmarked) [SC79],,restored Akt and rpS6 phosphorylation
